The text below walks through data of patent US4831041A, “Imidazopyridine compounds and processes for preparation thereof” (Fujisawa Pharmaceutical Co., Ltd., priority 1986, dated 1989).

In one assay the test system is Stress Ulcer. Description: Inhibition on Stress Ulcer. It is filed as in vivo, Sprague-Dawley rats. To be noted: 32 mg/kg, oral, just before immobilization in water bath at 22° C.; seven hours; mean ulcer area vs control. Here is the method: (B) Inhibition on Stress Ulcer
Five Sprague-Dawley rats weighing about 200 g were used per group. Each animal was immobilized in a small cage and put in a water bath allowing to respire. The temperature of the water bath kept at 22° C. The test compound was administered orally just before the immobilization. Seven hours later, the animals were sacrificed and their stomachs were removed. The stomach was then fixed with 2% formalin. The area of ulcers was measured for each animal. The mean area (mm^2) in the medicated animals was compared with that in the control animals.

For the next assay, the system named is ethanol ulcer. Nature of the assay: Inhibition on ethanol ulcer. It counts as in vivo, Sprague-Dawley rats. The note with it: 32 mg/kg, oral, 30 minutes before absolute ethanol (5 ml/kg); rats sacrificed one hour later; mean ulcer area vs control. Here is the method: (A) Inhibition on ethanol ulcer
Five male Sprague-Dawley rats, aged 7 weeks and weighing about 200 g, were used per group for the study on ethanol ulcer after the fast for 24 hours.
Test compound was suspended in 0.1% methylcellulose aqueous solution, and the suspension (5 ml/kg) was orally given to each rat.
The control group was given a vehicle, i.e. 0.1% methylcellulose aqueous solution (5 ml/kg), alone in the same way.
Absolute ethanol (5 ml/kg) was orally administered 30 minutes after dosing with test compound, and one hour later, the rats were sacrificed and their stomachs were removed. The area of ulcers of each rat was measured. The mean area […] in the medicated group was compared with that in the control group.

In the case of `C#CCc1c(C)nc2c(OCc3c(C)cccc3NC(N)=S)cccn12` [Test Compound (4), 2-Methyl-8-(2-methyl-6-thioureidobenzyloxy)-3(2-propynyl)imidazo[1,2-a]pyridine], in the assay on Stress Ulcer, the “Inhibition % (stress ulcer area)” value turned out to be 100%. With `C#CCc1c(C)nc2c(OCc3c(C)cccc3NC(=O)OC)cccn12` [Test Compound (1), 8-(2-Methoxycarbonylamino-6-methylbenzyloxy)-2-methyl-3-(2-propynyl)imidazo[1,2-a]pyridine], the “Inhibition % (ethanol ulcer area)” value in the assay with ethanol ulcer is recorded as 93.2%. The “Inhibition % (stress ulcer area)” value with Stress Ulcer is listed as 100%. With `C#CCc1c(C)nc2c(OCc3c(C)cccc3NC(C)=O)cccn12` [Test Compound (2), 8-(2-Acetamido-6-methylbenzyloxy)-2-methyl-3(2-propynyl)imidazo[1,2-a]pyridine], the “Inhibition % (stress ulcer area)” value in the assay with Stress Ulcer was 100%.

In the case of `C#CCc1c(C)nc2c(OCc3c(C)cccc3NC(N)=O)cccn12` [Test Compound (3), 2-methyl-8-(2-methyl-6-ureidobenzyloxy)-3-(2propynyl)imidazo[1,2-a]pyridin], in the assay with Stress Ulcer, the “Inhibition % (stress ulcer area)” value came out at 100%.
